According to patent US11083725B2 (priority 2014, dated 2021):

Test system: NHBE cells
Assay: Biolog metabolic array: substrate use by NHBE cells with or without CA09 infection
Assay type: cell-based, human
Conditions: for Substrate use, 590 nm absorbance normalized to zero hour, 1 hr: Biolog PMM2, 1 hr; for Substrate use, 590 nm absorbance normalized to zero hour, 5 hr: Biolog PMM2, 5 hr; for Substrate use, 590 nm absorbance normalized to zero hour, 7 hr: Biolog PMM2, 7 hr; for Substrate use, 590 nm absorbance normalized to zero hour, 0 hr: Biolog PMM2, 0 hr
[1] = Control (uninfected) NHBE cells
[2] = Virus (CA09, MOI 1) infected NHBE cells
[3] = Virus (CA09-infected, MOI 1) NHBE cells
[4] = Virus: CA09-infected NHBE cells, MOI 1, Biolog PMM2

Question: `OC[C@@H](O)[C@@H](O[C@@H]1O[C@H](CO)[C@H](O)[C@H](O)[C@H]1O)[C@H](O)[C@@H](O)CO` [Lactitol] was tested. Which “590 nm absorbance normalized to zero hour (substrate use), 1 hr” value [1] did it give?
Answer: 0.19

Question: What about the “590 nm absorbance normalized to zero hour (substrate use), 2 hr” value (shortened to “590 nm absorbance normalized … 2 hr”) [1] of the same compound?
Answer: 0.26

Question: What about the “590 nm absorbance normalized to zero hour (substrate use), 3 hr” value (“590 nm absorbance normalized … 3 hr” for short) [1] of the same compound?
Answer: 0.31

Question: What about the “590 nm absorbance normalized to zero hour (substrate use), 4 hr” value (“590 nm absorbance normalized … 4 hr” below) [1] of the same compound?
Answer: 0.33

Question: What about the “590 nm absorbance normalized to zero hour (substrate use), 6 hr” value (shortened to “590 nm absorbance normalized … 6 hr”) [1] of the same compound?
Answer: 0.40

Question: What about the “590 nm absorbance normalized to zero hour (substrate use), 8 hr” value (“590 nm absorbance normalized … 8 hr” for short) [1] of the same compound?
Answer: 0.47

Question: What about the “590 nm absorbance normalized to zero hour (substrate use), 9 hr” value (“590 nm absorbance normalized … 9 hr” below) [1] of the same compound?
Answer: 0.50

Question: What about the “590 nm absorbance normalized to zero hour (substrate use), 10 hr” value (shortened to “590 nm absorbance normalized … 10 hr”) [1] of the same compound?
Answer: 0.55

Question: What about the “590 nm absorbance normalized to zero hour (substrate use), 11 hr” value (from here on “590 nm absorbance normalized … 11 hr”) [1] of the same compound?
Answer: 0.62

Question: What about the “Substrate use, 590 nm absorbance normalized to zero hour, 1 hr” value [1] of the same compound?
Answer: 0.19

Question: What about the “Substrate use, 590 nm absorbance normalized to zero hour, 5 hr” value [1] of the same compound?
Answer: 0.39

Question: And the “Substrate use, 590 nm absorbance normalized to zero hour, 7 hr” value [1]?
Answer: 0.44

Question: What about the “Substrate use, 590 nm absorbance normalized to zero hour, 1 hr” value [2] of the same compound?
Answer: 1.61

Question: What about the “Substrate use, 590 nm absorbance normalized to zero hour, 5 hr” value [2] of the same compound?
Answer: 3.16

Question: And the “Substrate use, 590 nm absorbance normalized to zero hour, 7 hr” value [2]?
Answer: 3.55

Question: And the “590 nm absorbance normalized to zero hour (substrate use), 1 hr” value [3]?
Answer: 1.61

Question: And the “590 nm absorbance normalized … 2 hr” value [3]?
Answer: 2.20

Question: And the “590 nm absorbance normalized … 3 hr” value [3]?
Answer: 2.54

Question: And the “590 nm absorbance normalized … 4 hr” value [3]?
Answer: 2.73

Question: What about the “590 nm absorbance normalized … 6 hr” value [3] of the same compound?
Answer: 3.38

Question: And the “590 nm absorbance normalized … 8 hr” value [3]?
Answer: 3.76

Question: What about the “590 nm absorbance normalized … 9 hr” value [3] of the same compound?
Answer: 4.11

Question: And the “590 nm absorbance normalized … 10 hr” value [3]?
Answer: 4.31

Question: And the “590 nm absorbance normalized … 11 hr” value [3]?
Answer: 4.66

Question: `CO[C@H]1O[C@H](CO)[C@H](O)[C@H](O)[C@H]1O` [a-Methyl-D-Galactoside] was tested. Which “590 nm absorbance normalized to zero hour (substrate use), 0 hr” value [1] did it give?
Answer: 1.00

Question: And the “590 nm absorbance normalized to zero hour (substrate use), 1 hr” value [1]?
Answer: 1.13

Question: What about the “590 nm absorbance normalized … 2 hr” value [1] of the same compound?
Answer: 0.68

Question: What about the “590 nm absorbance normalized … 3 hr” value [1] of the same compound?
Answer: 0.80

Question: And the “590 nm absorbance normalized … 4 hr” value [1]?
Answer: 0.84

Question: What about the “590 nm absorbance normalized … 6 hr” value [1] of the same compound?
Answer: 1.20

Question: What about the “590 nm absorbance normalized … 8 hr” value [1] of the same compound?
Answer: 1.15

Question: And the “590 nm absorbance normalized … 9 hr” value [1]?
Answer: 1.29

Question: And the “590 nm absorbance normalized … 10 hr” value [1]?
Answer: 1.42

Question: What about the “590 nm absorbance normalized … 11 hr” value [1] of the same compound?
Answer: 1.06

Question: What about the “Substrate use, 590 nm absorbance normalized to zero hour, 0 hr” value [1] of the same compound?
Answer: 1.00

Question: And the “Substrate use, 590 nm absorbance normalized to zero hour, 1 hr” value [1]?
Answer: 1.13

Question: And the “Substrate use, 590 nm absorbance normalized to zero hour, 5 hr” value [1]?
Answer: 1.01

Question: And the “Substrate use, 590 nm absorbance normalized to zero hour, 7 hr” value [1]?
Answer: 1.15

Question: What about the “590 nm absorbance normalized to zero hour (substrate use), 0 hr” value [3] of the same compound?
Answer: 1.00

Question: And the “590 nm absorbance normalized to zero hour (substrate use), 1 hr” value [3]?
Answer: 2.91

Question: What about the “590 nm absorbance normalized … 2 hr” value [3] of the same compound?
Answer: 1.88

Question: What about the “590 nm absorbance normalized … 3 hr” value [3] of the same compound?
Answer: 1.16

Question: And the “590 nm absorbance normalized … 4 hr” value [3]?
Answer: 1.24

Question: And the “590 nm absorbance normalized to zero hour (substrate use), 5 hr” value [3]?
Answer: 1.43

Question: And the “590 nm absorbance normalized … 6 hr” value [3]?
Answer: 1.51

Question: What about the “590 nm absorbance normalized to zero hour (substrate use), 7 hr” value [3] of the same compound?
Answer: 1.59

Question: And the “590 nm absorbance normalized … 8 hr” value [3]?
Answer: 1.67

Question: And the “590 nm absorbance normalized … 9 hr” value [3]?
Answer: 1.83

Question: What about the “590 nm absorbance normalized … 10 hr” value [3] of the same compound?
Answer: 1.89

Question: What about the “590 nm absorbance normalized … 11 hr” value [3] of the same compound?
Answer: 2.05

Question: What about the “590 nm absorbance normalized to zero hour (substrate use), 0 hr” value [4] of the same compound?
Answer: 1.00

Question: And the “590 nm absorbance normalized to zero hour (substrate use), 1 hr” value [4]?
Answer: 2.91

Question: What about the “590 nm absorbance normalized … 2 hr” value [4] of the same compound?
Answer: 1.88

Question: What about the “590 nm absorbance normalized … 3 hr” value [4] of the same compound?
Answer: 1.16

Question: What about the “590 nm absorbance normalized … 4 hr” value [4] of the same compound?
Answer: 1.24

Question: What about the “590 nm absorbance normalized to zero hour (substrate use), 5 hr” value [4] of the same compound?
Answer: 1.43

Question: What about the “590 nm absorbance normalized … 6 hr” value [4] of the same compound?
Answer: 1.51

Question: What about the “590 nm absorbance normalized to zero hour (substrate use), 7 hr” value [4] of the same compound?
Answer: 1.59

Question: And the “590 nm absorbance normalized … 8 hr” value [4]?
Answer: 1.67

Question: And the “590 nm absorbance normalized … 9 hr” value [4]?
Answer: 1.83

Question: And the “590 nm absorbance normalized … 10 hr” value [4]?
Answer: 1.89

Question: What about the “590 nm absorbance normalized … 11 hr” value [4] of the same compound?
Answer: 2.05

Question: `O=P(O)(O)OC[C@H](O)CO` (racemic) [D,L-a-Glycerol Phosphate] was tested. Which “590 nm absorbance normalized to zero hour (substrate use), 0 hr” value [1] did it give?
Answer: 1.00

Question: And the “590 nm absorbance normalized to zero hour (substrate use), 1 hr” value [1]?
Answer: 0.34

Question: And the “590 nm absorbance normalized … 2 hr” value [1]?
Answer: 0.48

Question: What about the “590 nm absorbance normalized … 3 hr” value [1] of the same compound?
Answer: 0.56

Question: And the “590 nm absorbance normalized … 4 hr” value [1]?
Answer: 0.60

Question: And the “590 nm absorbance normalized … 6 hr” value [1]?
Answer: 0.71

Question: What about the “590 nm absorbance normalized … 8 hr” value [1] of the same compound?
Answer: 0.83

Question: What about the “590 nm absorbance normalized … 9 hr” value [1] of the same compound?
Answer: 0.91

Question: And the “590 nm absorbance normalized … 10 hr” value [1]?
Answer: 0.91

Question: And the “590 nm absorbance normalized … 11 hr” value [1]?
Answer: 1.05

Question: And the “Substrate use, 590 nm absorbance normalized to zero hour, 0 hr” value [1]?
Answer: 1.00

Question: And the “Substrate use, 590 nm absorbance normalized to zero hour, 1 hr” value [1]?
Answer: 0.34

Question: What about the “Substrate use, 590 nm absorbance normalized to zero hour, 5 hr” value [1] of the same compound?
Answer: 0.70

Question: And the “Substrate use, 590 nm absorbance normalized to zero hour, 7 hr” value [1]?
Answer: 0.79

Question: And the “Substrate use, 590 nm absorbance normalized to zero hour, 0 hr” value [2]?
Answer: 1.00

Question: And the “Substrate use, 590 nm absorbance normalized to zero hour, 1 hr” value [2]?
Answer: 2.01

Question: And the “Substrate use, 590 nm absorbance normalized to zero hour, 5 hr” value [2]?
Answer: 3.72

Question: And the “Substrate use, 590 nm absorbance normalized to zero hour, 7 hr” value [2]?
Answer: 4.18

Question: What about the “590 nm absorbance normalized to zero hour (substrate use), 0 hr” value [3] of the same compound?
Answer: 1.00

Question: What about the “590 nm absorbance normalized to zero hour (substrate use), 1 hr” value [3] of the same compound?
Answer: 2.01

Question: And the “590 nm absorbance normalized … 2 hr” value [3]?
Answer: 2.64

Question: What about the “590 nm absorbance normalized … 3 hr” value [3] of the same compound?
Answer: 3.07

Question: What about the “590 nm absorbance normalized … 4 hr” value [3] of the same compound?
Answer: 3.24

Question: What about the “590 nm absorbance normalized … 6 hr” value [3] of the same compound?
Answer: 3.99

Question: What about the “590 nm absorbance normalized … 8 hr” value [3] of the same compound?
Answer: 4.43

Question: And the “590 nm absorbance normalized … 9 hr” value [3]?
Answer: 4.93

Question: What about the “590 nm absorbance normalized … 10 hr” value [3] of the same compound?
Answer: 5.12

Question: What about the “590 nm absorbance normalized … 11 hr” value [3] of the same compound?
Answer: 5.62
